Measured values reported in the NIST ThermoML archive (doi:10.1021/je0604481).

Experiment: mn = molality of the nth substance listed, in mol/kg
Conditions: Liquid; for mass density: Constant-volume piezometry; for viscosity: Capillary tube (Ostwald / Ubbelohde) method

O=S(=O)([O-])[O-].[Mg+2] [magnesium sulfate] + O
Conditions | mass density [kg/m3] | viscosity [mPa·s]
288.57 K, 101 kPa, m1 = 2.224 | 1235.34 | –
288.57 K, 101 kPa, m1 = 2.535 | 1263.36 | –
291.15 K, 101 kPa, m1 = 0.084 | 1008.8 | –
297.7 K, 101 kPa, m1 = 2.224 | 1231.87 | –
297.7 K, 101 kPa, m1 = 2.535 | 1259.83 | –
298.15 K, 100 kPa, m1 = 0.085 | – | 0.9407
298.15 K, 100 kPa, m1 = 0.255 | – | 1.055
298.15 K, 100 kPa, m1 = 0.437 | – | 1.184
298.15 K, 100 kPa, m1 = 0.722 | – | 1.442
298.15 K, 100 kPa, m1 = 0.923 | – | 1.651
298.15 K, 100 kPa, m1 = 1.824 | – | 3.137
298.15 K, 100 kPa, m1 = 2.291 | – | 4.414
298.15 K, 100 kPa, m1 = 2.623 | – | 5.789
298.15 K, 10000 kPa, m1 = 0.085 | – | 0.94
298.15 K, 10000 kPa, m1 = 0.255 | – | 1.054
298.15 K, 10000 kPa, m1 = 0.437 | – | 1.184
298.15 K, 10000 kPa, m1 = 0.722 | – | 1.443
298.15 K, 10000 kPa, m1 = 0.923 | – | 1.653
298.15 K, 10000 kPa, m1 = 1.824 | – | 3.138
298.15 K, 10000 kPa, m1 = 2.291 | – | 4.415
298.15 K, 10000 kPa, m1 = 2.623 | – | 5.79
298.15 K, 30000 kPa, m1 = 0.085 | – | 0.9415
298.15 K, 30000 kPa, m1 = 0.255 | – | 1.056
298.15 K, 30000 kPa, m1 = 0.437 | – | 1.185
298.15 K, 30000 kPa, m1 = 0.722 | – | 1.445
298.15 K, 30000 kPa, m1 = 0.923 | – | 1.655
298.15 K, 30000 kPa, m1 = 1.824 | – | 3.14
298.15 K, 30000 kPa, m1 = 2.291 | – | 4.417
298.15 K, 30000 kPa, m1 = 2.623 | – | 5.792
299.67 K, 2040 kPa, m1 = 2.224 | 1231.7 | –
299.67 K, 7179 kPa, m1 = 2.224 | 1233.3 | –
299.67 K, 16830 kPa, m1 = 2.224 | 1236.3 | –
299.67 K, 22550 kPa, m1 = 2.224 | 1238.2 | –
299.67 K, 29600 kPa, m1 = 2.224 | 1240.3 | –
303.03 K, 101 kPa, m1 = 0.469 | 1050.08 | –
303.15 K, 101 kPa, m1 = 0.841 | 1090.98 | –
308.15 K, 100 kPa, m1 = 0.085 | – | 0.761
308.15 K, 100 kPa, m1 = 0.255 | – | 0.8459
308.15 K, 100 kPa, m1 = 0.437 | – | 0.9437
308.15 K, 100 kPa, m1 = 0.722 | – | 1.151
308.15 K, 100 kPa, m1 = 0.923 | – | 1.305
308.15 K, 100 kPa, m1 = 1.824 | – | 2.415
308.15 K, 100 kPa, m1 = 2.291 | – | 3.374
308.15 K, 100 kPa, m1 = 2.623 | – | 4.352
308.15 K, 10000 kPa, m1 = 0.085 | – | 0.7618
308.15 K, 10000 kPa, m1 = 0.255 | – | 0.8466
308.15 K, 10000 kPa, m1 = 0.437 | – | 0.946
308.15 K, 10000 kPa, m1 = 0.722 | – | 1.153
308.15 K, 10000 kPa, m1 = 0.923 | – | 1.305
308.15 K, 10000 kPa, m1 = 1.824 | – | 2.418
308.15 K, 10000 kPa, m1 = 2.291 | – | 3.376
308.15 K, 10000 kPa, m1 = 2.623 | – | 4.355
308.15 K, 30000 kPa, m1 = 0.085 | – | 0.7645
308.15 K, 30000 kPa, m1 = 0.255 | – | 0.8495
308.15 K, 30000 kPa, m1 = 0.437 | – | 0.9486
308.15 K, 30000 kPa, m1 = 0.722 | – | 1.156
308.15 K, 30000 kPa, m1 = 0.923 | – | 1.309
308.15 K, 30000 kPa, m1 = 1.824 | – | 2.422
308.15 K, 30000 kPa, m1 = 2.291 | – | 3.348
308.15 K, 30000 kPa, m1 = 2.623 | – | 4.364
308.6 K, 101 kPa, m1 = 0.261 | 1024.48 | –
310.15 K, 101 kPa, m1 = 2.224 | 1226.56 | –
310.15 K, 101 kPa, m1 = 2.535 | 1254.38 | –
314.98 K, 2157 kPa, m1 = 2.535 | 1252.7 | –
314.98 K, 8159 kPa, m1 = 2.535 | 1254.5 | –
314.98 K, 15690 kPa, m1 = 2.535 | 1256.7 | –
314.98 K, 25910 kPa, m1 = 2.535 | 1259.9 | –
314.98 K, 29800 kPa, m1 = 2.535 | 1261 | –
323.05 K, 2197 kPa, m1 = 2.224 | 1221.5 | –
323.05 K, 10120 kPa, m1 = 2.224 | 1224 | –
323.05 K, 19850 kPa, m1 = 2.224 | 1227 | –
323.05 K, 26300 kPa, m1 = 2.224 | 1229.1 | –
323.05 K, 30500 kPa, m1 = 2.224 | 1230.3 | –
323.15 K, 100 kPa, m1 = 0.085 | – | 0.5785
323.15 K, 100 kPa, m1 = 0.255 | – | 0.6403
323.15 K, 100 kPa, m1 = 0.437 | – | 0.7163
323.15 K, 100 kPa, m1 = 0.722 | – | 0.8612
323.15 K, 100 kPa, m1 = 0.923 | – | 0.9738
323.15 K, 100 kPa, m1 = 1.824 | – | 1.744
323.15 K, 100 kPa, m1 = 2.291 | – | 2.373
323.15 K, 100 kPa, m1 = 2.623 | – | 2.997
323.15 K, 101 kPa, m1 = 0.084 | 998.05 | –
323.15 K, 101 kPa, m1 = 0.261 | 1018.3 | –
323.15 K, 101 kPa, m1 = 0.469 | 1041.45 | –
323.15 K, 101 kPa, m1 = 0.841 | 1082.67 | –
323.15 K, 10000 kPa, m1 = 0.085 | – | 0.5809
323.15 K, 10000 kPa, m1 = 0.255 | – | 0.6431
323.15 K, 10000 kPa, m1 = 0.437 | – | 0.7198
323.15 K, 10000 kPa, m1 = 0.722 | – | 0.8651
323.15 K, 10000 kPa, m1 = 0.923 | – | 0.9781
323.15 K, 10000 kPa, m1 = 1.824 | – | 1.751
323.15 K, 10000 kPa, m1 = 2.291 | – | 2.382
323.15 K, 10000 kPa, m1 = 2.623 | – | 3.009
323.15 K, 30000 kPa, m1 = 0.085 | – | 0.5856
323.15 K, 30000 kPa, m1 = 0.255 | – | 0.648
323.15 K, 30000 kPa, m1 = 0.437 | – | 0.7256
323.15 K, 30000 kPa, m1 = 0.722 | – | 0.8714
323.15 K, 30000 kPa, m1 = 0.923 | – | 0.9853
323.15 K, 30000 kPa, m1 = 1.824 | – | 1.764
323.15 K, 30000 kPa, m1 = 2.291 | – | 2.4
323.15 K, 30000 kPa, m1 = 2.623 | – | 3.031
324.35 K, 101 kPa, m1 = 2.224 | 1219.96 | –
324.35 K, 101 kPa, m1 = 2.535 | 1247.46 | –
340.25 K, 101 kPa, m1 = 2.224 | 1211.6 | –
340.25 K, 101 kPa, m1 = 2.535 | 1238.93 | –
348.13 K, 1549 kPa, m1 = 2.535 | 1235.1 | –
348.13 K, 9807 kPa, m1 = 2.535 | 1237.7 | –
348.13 K, 14220 kPa, m1 = 2.535 | 1238.9 | –
348.13 K, 23810 kPa, m1 = 2.535 | 1241.9 | –
348.13 K, 30020 kPa, m1 = 2.535 | 1243.8 | –
348.15 K, 100 kPa, m1 = 0.437 | – | 0.491
